Data published in US20190291112A1, “DROPLET MICROFLUIDICS FOR DRUG SCREENING” (University of Macau, priority 2018, published 2019).
Read-outs that look alike come from different tables or passages of the source. Each block holds one molecule with its values, some of them ahead of it.

Assays:
[1] = system: Jurkat cells; experiment: On chip drug screening assay (ethidium homodimer 1 staining); format: cell-based, human; settings: 16-24 h
Protocol: Jurkat E6.1 cells (ATCC® TIB-152™) and MDA-MB-231 cells (ATCC® HTB-26™) were used as models for suspended and adherent cancer cell lines respectively. Jurkat cell line was derived from human acute T cell leukemia, whereas MDA-MB-231 cell line was derived from human metastatic breast adenocarcinoma. On chip drug screening was performed using the PDMS-based microfluidic chip as described above. A 500 μL glass syringe (Hamilton, USA) and polytetrafluoroethylene (PTFE) tubings with appropriate bore (Cole Parmer, USA) was used to connect between the syringe pump (Harvard Apparatus PHD Ultra Syringe Pump, USA) and the microfluidic chip. Fluorinert® FC-40 (Sigma-Aldrich, USA) supplemented with 2% 008-Fluorosurfactant (Ran Biotechnologies, USA) was used as oil phase; relevant cell culture medium, supplemented with 1% (w/v) methyl cellulose (Sigma-Aldrich, USA) was used as aqueous phase. Cells treated with 0.1% dimethyl sulfoxide (DMSO) were used as negative control. […] Next, […], cell-drug mixtures were loaded into the tubing, consecutively segregated by oil phase at withdrawal rate of 200 μL/h by syringe pump. After loading all mixtures, the tubing was inserted into the microfluidic chip, which was back-flushed with oil phase at 500 μL/h by syringe pump. After that, the mixtures were infused at 25 μL/h by syringe pump. Finally, the inlet and outlet tubings were cut and sealed with Vaseline (Vaseline, USA). […] Brightfield and red fluorescence images (Ex. 531/40 nm, Em. 593/40 nm) were taken under 10× magnification (Life Technologies EVOS FL Imaging System, USA). […] For on chip assays, the number of cells was counted in brightfield and red fluorescence images from each well respectively.

[2] = system: MDA-MB-231 cells; experiment: 96-well microtiter plate drug screening assay (Alamar Blue); format: cell-based, human; settings: 96-well plate
Protocol: (§1) Jurkat E6.1 cells (ATCC® TIB-152™) and MDA-MB-231 cells (ATCC® HTB-26™) were used as models for suspended and adherent cancer cell lines respectively. Jurkat cell line was derived from human acute T cell leukemia, whereas MDA-MB-231 cell line was derived from human metastatic breast adenocarcinoma.
(§2) Microtiter plate drug screening assays were carried out on 96-well clear round flat-bottom plates (Corning, USA) or 384-well white square flat-bottom plates (Corning, USA).
(§3) First, 5.0×10^5 or 1.0×10^5 cells were seeded per well for 96-well and 384-well plates respectively. Drugs were diluted with Dulbecco's phosphate-buffered saline (DPBS) (Life Technologies, USA), and subsequently added to achieve final drug concentrations as indicated on the graphs. Afterwards, the plates were transferred to humidified incubator at 37° C. supplemented with 5% CO2 for 16-24 h incubation. Finally, Alamar Blue assay was used to measure cell viability. Fluorescence intensity (Ex. 560 nm, Em. 590 nm) using auto-cutoff was measured from bottom on plate reader (Molecular Devices SpectraMax MS Plate Reader, USA). Cells treated with 0.1% dimethyl sulfoxide (DMSO) were used as negative control, while no cells were added to blank control. All experiments were performed in triplicate for 96-well plates and in quadruplicates for 384-well relates.
(§4) For microliter plate assays, average relative fluorescence signal measured by plate reader from 6 reads of each well was used as raw data point. Cell viability was calculated as follows: […]
(§5) where Sample represented raw data points of each sample well, whereas DMSO control and Blank represented average raw data points of all DMSO control and Blank wells, respectively.

[3] = system: Jurkat cells; experiment: as above; format: cell-based, human; settings: 96-well plate, 16-24 h
Protocol: as §1, §2, §3, §4, §5

[4] = system: MDA-MB-231 cells; experiment: On chip drug screening assay (ethidium homodimer 1 staining); format: cell-based, human
Protocol: as §1
On chip drug screening was performed using the PDMS-based microfluidic chip as described above. A 500 μL glass syringe (Hamilton, USA) and polytetrafluoroethylene (PTFE) tubings with appropriate bore (Cole Parmer, USA) was used to connect between the syringe pump (Harvard Apparatus PHD Ultra Syringe Pump, USA) and the microfluidic chip. Fluorinert® FC-40 (Sigma-Aldrich, USA) supplemented with 2% 008-Fluorosurfactant (Ran Biotechnologies, USA) was used as oil phase; relevant cell culture medium, supplemented with 1% (w/v) methyl cellulose (Sigma-Aldrich, USA) was used as aqueous phase. Cells treated with 0.1% dimethyl sulfoxide (DMSO) were used as negative control.
Briefly, cells at final concentrations of 1-2×10^6 cells per mL were aliquoted in 0.2 mL PCR tubes, then mixed with corresponding drugs and 2 μM ethidium homodimer 1 (Life Technologies, USA) by manual pipetting. Next, […], cell-drug mixtures were loaded into the tubing, consecutively segregated by oil phase at withdrawal rate of 200 μL/h by syringe pump. After loading all mixtures, the tubing was inserted into the microfluidic chip, which was back-flushed with oil phase at 500 μL/h by syringe pump. After that, the mixtures were infused at 25 μL/h by syringe pump. Finally, the inlet and outlet tubings were cut and sealed with Vaseline (Vaseline, USA). The chips were placed in 150 mm cell culture dish (Coming, USA) containing wet paper towels, and transferred to humidified incubator at 37° C. supplemented with 5% CO2 for 16-24 h incubation. Brightfield and red fluorescence images (Ex. 531/40 nm, Em. 593/40 nm) were taken under 10× magnification (Life Technologies EVOS FL Imaging System, USA).
For on chip assays, brightfield and red fluorescence images were initially processed by ImageJ v.1.50i, Cell counting was either performed manually or by Matlab v.R201.5a based on the workflow shown on FIG. 5B. Briefly, cells from brightfield and red fluorescence images were detected separately using a heuristic Hough Transformation model based on threshold implementation on circular diameter and pixel intensity. Next, each recognized cell was dissected into 10×10 pixels matrix for analysis of its pixel intensity. Subsequently, two layers of multi-radii analysis of pixel intensity around the center of each matrix distinguished signal from noise. Afterwards, cells were distinguished from noise based on the brightfield image, whereas cell viability was determined by signal intensity of corresponding red fluorescence image. Finally, positional information (defined by row: x, and column: y) and size (defined by radius: r) of discrete image matrix was used to classify each cell as “live” or “dead”. The total number of cells in each image corresponding to each droplet formation well on chip was summarized as a table in CSV format for calculation of cell viability. […]
For on chip assays, the number of cells was counted in brightfield and red fluorescence images from each well respectively. Cell viability was calculated as follows: […]
where Total cells and Dead cells referred to the total number of cells counted from brightfield and red fluorescence images, respectively. […]

[5] = system: primary tumor cell NAS1604 (nasopharyngeal tumor); experiment: On chip drug screening of primary tumor dissociated cells; format: cell-based, human
[6] = system: NAS1608 human primary nasopharyngeal tumor sample; experiment: cells; format: cell-based; settings: for viability at 1 µM / viability at 10 µM / cytotoxicity at 10 µM: Homo sapiens; for viability at 1 µM / viability at 10 µM: read-out: mean cell viability; for droplet cell viability range: 17 h post-treatment; for range of droplet cell viability: before treatment (0 h); for mean cell death: normalized to DMSO control, calibrated by 0 h data

IC50 ([1]; Homo sapiens): 22.1 µM
IC50 ([2]; Homo sapiens): > 10 µM
IC50 ([3]; Homo sapiens): 22.1 µM
IC50 ([4]; Homo sapiens): > 10 µM
Structure (SMILES): CC(C)C[C@H](NC(=O)[C@H](Cc1ccccc1)NC(=O)c1cnccn1)B(O)O [bortezomib]
range of droplet cell viability ([5]; NAS1604, 1 μM bortezomib): 42.6%
mean cell viability compared with other treatments ([5]; NAS1604, 1 μM, versus DMSO and cisplatin): highest mean cell viability
viability at 1 µM ([6]; 0 h): 72.9%
viability at 10 µM ([6]; 0 h): 78.8%
cytotoxicity at 10 µM ([6]; 17 h, read-out: droplet cell viability reduction in the majority of droplets): 35 to 55%
cytotoxicity at 10 µM ([6]; 17 h, read-out: maximum reduction of droplet cell viability): 62.9%
viability at 1 µM ([6]; 17 h): 42.5%
viability at 10 µM ([6]; 17 h): 34.6%
cytotoxicity at 10 µM ([6]; 17 h, read-out: minimum reduction of droplet cell viability): 29.3%
share of total sample cell population in droplets with viability reduction of over 30% ([6]; NAS1608, 10 μM bortezomib, 17 h): 92.4%
droplet cell viability range ([6]; NAS1608, 10 μM bortezomib): 49.7%
range of droplet cell viability ([6]; NAS1608, 10 μM bortezomib): 29.0%
mean cell death ([6]; NAS1608, 10 μM, 17 h): 51.7%
dose dependence of normalized cell viability ([6]; NAS1608, 16-24 h, normalized to mock treatment): dose-dependent reduction of cell viability

Structure (SMILES): N.N.[Cl][Pt][Cl] [cisplatin]
IC50 [1]: 39 µM
IC50 [2]: > 50 µM
IC50 [3]: 39 µM
IC50 [4]: 4.2 µM
mean cell viability compared with other treatments ([5]; NAS1604, 20 μM): lowest mean cell viability
range of droplet cell viability ([5]; NAS1604, 20 μM cisplatin): 64.0%
droplet cell viability range ([6]; NAS1608, 100 μM cisplatin): 56.5%
range of droplet cell viability ([6]; NAS1608, 100 μM cisplatin): 31.1%
mean cell death ([6]; NAS1608, 100 μM, 17 h): 21.0%
